# Values joined by “and” are separate entries in the source; they are usually repeats but may differ in a detail not shown here. Equal entries are not always repeated.
# How the values were obtained:
# [1] = system: human kidney derived cells (hKDCs); test: Cell viability of encapsulated hKDCs in DPA gels (Live/Dead); type: cell-based; conditions: 2% DPA gel, after 1, 2 and 3 weeks
# Method: The viability and proliferation of cells in the gels was evaluated by encapsulating human kidney derived cells (hKDCs) in the gels. hKDC were isolated as described in US Patent Publication Number 2008/0112939. Cells were thawed from storage and cultured for four days in renal epithelial growth media (REGM) media. After four days, the cells were trypsinized and counted by the Guava ViaCount (Millipore, Billerica, Mass.) methodology. Cells were re-suspended in REGM media at a density of 1,000,000 cells/ml. Encapsulation of the cells in the gels was achieved by adding 100 μl cell suspension to 100 μl of a 4 wt % DPA solution in ultrapure in a 24 well plate, resulting in a final DPA concentration of 2%. The gels were incubated for 1 h at 37° C., 5% CO2 after which 1000 μl media was added on top of the gel. Cells were incubated at 37° C., 5% CO2. Every 3-4 days of culture, 500 μl media was replaced. The cells were cultured for 3 weeks and cells were assessed after 1, 2 and 3 weeks with Live/Dead.
# [2] = Gelation experiments: inversion test for self-supporting hydrogels; type: physicochemical; conditions: for Gelation (self-supporting gel on inversion), DMEM: DPA solution in water mixed 1:1 with DMEM; for Gelation (self-supporting gel on inversion), PBS / Gelation (self-supporting gel on inversion), Water: final concentrations 1, 2 and 4 weight percent tested; for Concentration at which gel forms, Water / Gelation (self-supporting gel on inversion), Water: in water; for Concentration at which gel forms, DMEM: mixed with DMEM
# Method: Inversion tests were performed to determine qualitatively under which conditions the various DPAs formed self-supporting hydrogels. The various types of DPAs were tested by dissolving them in ultrapure water (>18 MΩ resistivity) at double the desired final concentration followed by mixing in a 1:1 ratio with different liquid mediums. Gelation was deemed to have occurred if the gel supported its own weight upon inverting the vial (FIG. 3A and FIG. 3B). Gelation was tested at final concentrations of 1, 2 and 4 weight percent. We tested phosphate buffered saline (PBS), and Dulbecco's modified eagle media (DMEM) as liquid medium. Typical scale is 100 μl each of DPA solution in water and mixing medium but other scales have been tested. Finally, if no spontaneous gelation occurs, 10 μl of 100 mg/cc calcium chloride solution was added to induce gelation.
# [3] = listed as Gly-Phe-Gly-Phe-Gly-Phe-Gly-Gln-Gln-Ser(DPA)_ (SEQ ID NO: 8)
structure (smiles),measurement,setting,value
CCCCCCCCCCCCCCCC(=O)NC(C(=O)NCC(=O)N[C@@H](Cc1ccccc1)C(=O)NCC(=O)N[C@@H](Cc1ccccc1)C(=O)NCC(=O)N[C@@H](Cc1ccccc1)C(=O)NCC(=O)N[C@@H](CCC(N)=O)C(=O)N[C@@H](CCC(N)=O)C(=O)N[C@@H](CO)C(=O)O)C(=O)NCC(=O)N[C@@H](Cc1ccccc1)C(=O)NCC(=O)N[C@@H](Cc1ccccc1)C(=O)NCC(=O)N[C@@H](Cc1ccccc1)C(=O)NCC(=O)N[C@@H](CCC(N)=O)C(=O)N[C@@H](CCC(N)=O)C(=O)N[C@@H](CO)C(=O)O [Gly-Phe-Gly-Phe-Gly-Phe-Gly-Gln-Gln-Ser],"Viability of hKDC cells, Live/Dead",[1],very limited numbers of dead cells were detected
same,Behaviour of gel after disruption by vortexing,[2]; 4 wt % in water,reform when left alone
same,Time to self-supporting gel,[2]; 4 wt % in water,approx. 5 minutes
same,"Gelation (self-supporting gel on inversion), DMEM",[2]; no calcium added,"Yes and Yes,"
same,"Gelation (self-supporting gel on inversion), DMEM","[2]; no calcium added, listed as Gly-Phe-Gly-Phe-Gly-Phe-Gly-Gln-Gln-Ser(DPA)_ (SEQ ID NO: 8)","Yes,"
same,"Concentration at which gel forms, PBS",[2],4 wt % and 4%
same,"Gelation (self-supporting gel on inversion), PBS",[2],"Yes and Yes,"
same,"Gelation (self-supporting gel on inversion), PBS",[2]; [3],"Yes,"
same,"Concentration at which gel forms, PBS",[2]; [3],4%
same,"Concentration at which gel forms, Water",[2],4 wt % and 4%
same,"Gelation (self-supporting gel on inversion), Water",[2],"Yes and Yes,"
same,"Gelation (self-supporting gel on inversion), Water",[2]; [3],"Yes,"
same,"Concentration at which gel forms, Water",[2]; [3],4%
same,"Concentration at which gel forms, DMEM",[2]; no calcium added,2%
same,"Concentration at which gel forms, DMEM",[2]; no supplemental calcium,2 wt %
